Values of other authors as cited in patent US20140234410A1, “COMBINATION PRODUCTS” (SIGMOID PHARMA LTD., priority 2004, published 2014).

Experiments:
[1] = in vivo
thrombocythemia = conditions: co-administrated with a small dose of aspirin; people with thrombocythemia
[2] = adults
[3] = in vivo; remark: listed apart in the source
tumour growth = conditions: simultaneous administration with R-verapamil

Structure (SMILES): COc1ccc2c(c1)[C@]13CCCC[C@@H]1[C@H](C2)N(C)CC3 [Dextromethorphan]
- adverse effects, share of people [1]: less than 1%

Structure (SMILES): NC(=O)NO [Hydroxyurea]
- preventing serious bleeding and other complications versus anagrelide hydrochloride (thrombocythemia): more effective
- solubility in water: freely soluble

Structure (SMILES): COCCOC(=O)C1=C(C)NC(C)=C(C(=O)OC(C)C)C1c1cccc([N+](=O)[O-])c1 (stereo not shown) [Nimodipine]
- solubility in water: practically insoluble

Structure (SMILES): Cn1c(=O)c2[nH]cnc2n(C)c1=O [Theophylline]
- biological half life [2]: < 6 hours
- concentrations with anti-inflammatory and immunostimulatory effect [3]: 5 to 10 mg/L

Structure (SMILES): CN/C(=N/CCSCc1nc[nH]c1C)NC#N [cimetidine]
- bioavailability of nimodipine (cytochrome P450; effect of the co-administered drug): approximate doubling

Structure (SMILES): CN(CCOc1ccc(CC2SC(=O)NC2=O)cc1)c1ccccn1 (stereo not shown) [rosiglitazone, Rosiglitazone]
- solubility as a function of pH (physiological range): decreases with increasing pH

Structure (SMILES): CC/C(=C(\c1ccccc1)c1ccc(OCCN(C)C)cc1)c1ccccc1 [tamoxifen, Tamoxifen]
- tumour growth (tumour growth): significantly decreases

Structure (SMILES): CCCC(CCC)C(=O)O [valproic acid]
- plasma concentrations of nimodipine (cytochrome P450; two drugs administered in combination): increased
